Laboratory results from paper PMC3510433, “Adamantyl carboxamides and acetamides as potent human 11β-hydroxysteroid dehydrogenase type 1 inhibitors” (Bioorganic & Medicinal Chemistry, 2012).
Marks after values point to notes of the source that are not given here.

Tests used:
[1] = target: T1, human 11β-HSD1 (Homo sapiens, UniProt P28845); assay: 11β-HSD1 inhibition, human HEK-293 cell based assay (SPA); details: for 11β-HSD1 inhibitory activity (in words): at 1 μM where stated; for inhibition at 1 µM: HEK293, read-out: Percentage of inhibition measured at 1 μM
T1 construct: expressed in transfected cells; host or cells: HEK-293 (human), stably transfected
Method: 11β-HSD1 inhibition was measured in intact human HEK-293 cells to reveal the true inhibitory activity. Differences in observed effects for different compounds may reflect combinatorial factors including the ability to penetrate the cell membrane, the stability within the cell and the binding ability to the enzyme.
The cell-based assays were conducted on the human HEK-293 cell line stably transfected with the HSD11B1 gene.[28] 11β-HSD1 activity was determined by measuring the amount of tritiated product formed using a scintillation proximity assay (SPA).
Cells were incubated in 96-well micro-plates in the presence of tritiated cortisone substrate and the assay plates contained internal high and low controls to allow calculation of percentage inhibition. Each well of a 96-well culture plate was seeded with human 11β-HSD1 overexpressed HEK293 cells in 100 μL medium. When the cells were 80% confluent, the medium was removed from each well then 100 μL of fresh, serum-free, medium containing ^3H-cortisone (22 nM) and test compound in 1% DMSO was added. The control wells were also dispensed. […] The plate was incubated at 37 °C for 2 h, after which 50 μL of medium was removed from each well and transferred to a microplate containing 100 μL of a pre-incubated mixture of anti-cortisol antibody and SPA bead. The mixture was incubated with gentle shaking until equilibrium was reached, before transferring to a scintillation counter to establish the enzyme activity in each sample.
The compounds were initially tested at a concentration of 1 μM. Those compounds showing over 70% inhibition of 11β-HSD1 at 1 μM were subjected to an IC50 measurement. A Merck compound 544 was used as the reference compound in the assay (IC50 = 50 ± 20 nM).[19] The IC50 values are reported as the mean value of 3 measurements with variance less than 20%. IC50 values were calculated from the dose-response curve using Microsoft Excel add-in XLfit with a Four Parameter Logistic nonlinear regression model.

[2] = HEK-293 cells stably transfected with HSD11B1, mean of 3 measurements
[3] = 1 μM, HEK-293 cells transfected with HSD11B1

T1 sequence (P28845 whole entry): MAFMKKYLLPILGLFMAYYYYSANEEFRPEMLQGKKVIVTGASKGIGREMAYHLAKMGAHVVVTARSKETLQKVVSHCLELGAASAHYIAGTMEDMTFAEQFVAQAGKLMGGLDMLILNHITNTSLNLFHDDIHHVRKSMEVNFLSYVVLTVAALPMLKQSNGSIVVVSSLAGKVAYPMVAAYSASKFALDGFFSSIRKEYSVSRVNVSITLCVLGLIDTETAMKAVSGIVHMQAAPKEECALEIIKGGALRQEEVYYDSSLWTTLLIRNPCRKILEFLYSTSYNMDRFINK

Structure (SMILES)	IC50 [1, 2] [nM]	melting point [°C]	inhibition at 1 µM [1, 3] [%]	also measured
O=C(NCc1cccs1)C12CC3CC(CC(C3)C1)C2 [Compound 5]	403			
Cc1ccsc1CN(C)C(=O)C12CC3CC(CC(C3)C1)C2 [Compound 6, N-Methyl-N-((3-methylthiophen-2-yl)methyl)adamantane-1-carboxamide]	275	72 to 73.5		11β-HSD1 inhibitory activity (in words) [1]: retains nearly the same activity as parent compound 3
CN(Cc1sccc1N)C(=O)C12CC3CC(CC(C3)C1)C2 [Compound 7, N-((3-Aminothiophen-2-yl)methyl)-N-methyladamantane-1-carboxamide]		117 to 119	12	11β-HSD1 inhibitory activity (in words) [1]: sharp decrease of activity
Cc1csc(CN(C)C(=O)C23CC4CC(CC(C4)C2)C3)c1 [Compound 8, N-Methyl-N-((4-methylthiophen-2-yl)-methyl)adamantane-1-carboxamide]		87 to 88	55	11β-HSD1 inhibitory activity (in words) [1]: weak inhibition
Cc1csc(CNC(=O)C23CC4CC(CC(C4)C2)C3)c1 [Compound 9, N-((4-Methylthiophen-2-yl)methyl)-adamantane-1-carboxamide]		127 to 128.5	8	
Cc1ccc(CN(C)C(=O)C23CC4CC(CC(C4)C2)C3)s1 [Compound 10, N-Methyl-N-((5-methylthiophen-2-yl)-methyl)adamantane-1-carboxamide]		83 to 85.5	32	11β-HSD1 inhibitory activity (in words) [1]: weak inhibition
CN(Cc1ccc(Cl)s1)C(=O)C12CC3CC(CC(C3)C1)C2 [Compound 11, N-((5-Chlorothiophen-2-yl)methyl)-N-methyladamantane-1-carboxamide]		92 to 94	29	11β-HSD1 inhibitory activity (in words) [1]: weak inhibition
CN(Cc1ccsc1)C(=O)C12CC3CC(CC(C3)C1)C2 [Compound 12]	125			
CN(Cc1ccco1)C(=O)C12CC3CC(CC(C3)C1)C2 [Compound 13]	249			
O=C(NCc1ccco1)C12CC3CC(CC(C3)C1)C2 [Compound 14, N-(Furan-2-ylmethyl)adamantane-1-carboxamide]		69 to 72	68	
Cn1cccc1CNC(=O)C12CC3CC(CC(C3)C1)C2 [Compound 16, N-((1-Methyl-1H-pyrrol-2-yl)meth-yl)-adamantane-1-carboxamide]	1700	117 to 119		
CN(Cc1nccn1C)C(=O)C12CC3CC(CC(C3)C1)C2 [Compound 17, N-Methyl-N-((1-methyl-1H-imidazol-2-yl)methyl)adamantane-1-carboxamide]		175 to 176	24	
CN(Cc1ccnn1C)C(=O)C12CC3CC(CC(C3)C1)C2 [Compound 18, N-Methyl-N-((1-methyl-1H-pyrazol-5-yl)-methyl)adamantane-1-carboxamide]		102 to 103.5	34	
Cc1csc(CN(C)C(=O)C23CC4CC(CC(C4)C2)C3)n1 [Compound 19, N-Methyl-N-((4-methylthiazol-2-yl)-methyl)adamantane-1-carboxamide]			31	
CN(Cc1cccc(N)c1)C(=O)C12CC3CC(CC(C3)C1)C2 [Compound 20, N-(3-Aminobenzyl)-N-methyladam-antane-1-carboxamide]	118	105 to 106.5		
CC(=O)Nc1cccc(CN(C)C(=O)C23CC4CC(CC(C4)C2)C3)c1 [Compound 21, N-(3-Acetamidobenzyl)-N-methyl-adamantane-1-carboxamide]		109 to 111	22	
CN(Cc1cccnc1)C(=O)C12CC3CC(CC(C3)C1)C2 [Compound 24, N-Methyl-N-(pyridin-3-ylmethyl)-adamantane-1-carboxamide]		57 to 59.5	57	
O=C(NCc1cccnc1)C12CC3CC(CC(C3)C1)C2 [Compound 25, N-(Pyridin-3-ylmethyl)adamantane-1-carboxamide]	676			
O=C(NCc1ccccn1)C12CC3CC(CC(C3)C1)C2 [Compound 26, N-(Pyridin-2-ylmethyl)adamantane-1-carboxamide]		91 to 93.5	45	
O=C(CC12CC3CC(CC(C3)C1)C2)NCc1ccccn1 [Compound 38, 2-(Adamantan-1-yl)-N-(pyridin-2-yl-methyl)acetamide]				Percentage of inhibition measured at 1 μM [1, 3]: 26% ^a

The next lines start with results.

IC50 [1, 2] [nM]	melting point [°C]	inhibition at 1 µM [1, 3] [%]	Structure (SMILES)	also measured
	76 to 77.5	48	Cc1cccc(CN(C)C(=O)C23CC4CC(CC(C4)C2)C3)n1 [Compound 27, N-Methyl-N-((6-methylpyridin-2-yl)-methyl)adamantane-1-carboxamide]	
448			CN(CCc1cccs1)C(=O)C12CC3CC(CC(C3)C1)C2 [Compound 28]	
679			O=C(NCCc1cccs1)C12CC3CC(CC(C3)C1)C2 [Compound 29]	
165	64 to 65		CN(CCc1ccccn1)C(=O)C12CC3CC(CC(C3)C1)C2 [Compound 30, N-Methyl-N-(2-(pyridin-2-yl)ethyl)-adamantane-1-carboxamide]	
379	76 to 79		O=C(NCCc1ccccn1)C12CC3CC(CC(C3)C1)C2 [Compound 31, N-(2-(Pyridin-2-yl)ethyl)adamant-ane-1-carboxamide]	
	83 to 85	1	O=C(NCCc1cccnc1)C12CC3CC(CC(C3)C1)C2 [Compound 32, N-(2-(Pyridin-3-yl)ethyl)adamant-ane-1-carboxamide]	
	117 to 119	66	O=C(CC12CC3CC(CC(C3)C1)C2)NCc1cccs1 [Compound 33, 2-(Adamantan-1-yl)-N-(thiophen-2-ylmeth-yl)acetamide]	
349	117 to 119		CN(Cc1ccsc1)C(=O)CC12CC3CC(CC(C3)C1)C2 [Compound 34, 2-(Adamantan-1-yl)-N-methyl-N-(thio-phen-3-ylmethyl)acetamide]	fold reduction in potency compared to 12 ([1]; acetamide vs carboxamide 12): greater than 2 fold
655	75 to 76.5		CN(Cc1cccn1C)C(=O)CC12CC3CC(CC(C3)C1)C2 [Compound 35, 2-(Adamantan-1-yl)-N-methyl-N-[(1-methyl-1H-pyrrol-2-yl)methyl]acetamide]	fold loss of inhibitory activity compared with 15 ([1]; acetamide vs carboxamide 15): ~6 fold
3600			CN(Cc1cccs1)C(=O)C1(C)CCCCC1 [Compound 40, N,1-Dimethyl-N-(thiophen-2-ylmethyl)cyclohexanecarboxamide]	
1550			CN(Cc1cccs1)C(=O)C1(c2ccc(Cl)cc2)CC1 [Compound 42, 1-(4-Chlorophenyl)-N-methyl-N-(thio-phen-2-ylmethyl) cyclopropanecarbox-amide]	IC50 ([1]; HEK-293 cells): ~1600 nM; fold loss of activity in comparison with 41 ([1]; vs compound 41): ~5.5 fold
385			CN(Cc1cccs1)C(=O)C1(c2ccc(Cl)cc2)CCC1 [Compound 43, 1-(4-Chlorophenyl)-N-methyl-N-(thio-phen-2-ylmethyl)cyclobutanecarbox-amide]	
50 ± 20			C1CCc2nnc(C34CC5CC(CC(C5)C3)C4)n2CC1 [Merck compound 544, reference compound]	
